What was measured:
[1] = target: T1, Recombinant STAT3 protein (STAT3(G127-I722)) (Homo sapiens, UniProt P40763); experiment: STAT3 Fluorescence Polarization (FP) Assay; type: binding; conditions: STAT3(G127-I722) 25 nM, probe 5-FAM-GpYLPQTV-NH2 2 nM, 45-minute incubation
T1 construct: STAT3(G127-I722)
Experimental: STAT3 Fluorescence Polarization (FP) Assay
An FP assay was developed to determine IC50 values for test substances. Recombinant STAT3 protein (STAT3(G127-I722)) at 25 nM was combined with a fluorescently labeled, phosphotyrosine peptide probe (5-FAM-GpYLPQTV-NH2) at 2 nM in FP buffer (10 mM HEPES pH 7.4, 50 mM NaCl, 1 mM EDTA, 0.05% Tween 20, 2 mM DTT). 50 μL of STAT3-probe mixture was added to serial diluted compounds in black, 96-well plates (Greiner BioOne 655076) to a final concentration of 1% DMSO. Reaction components were mixed, and FP was measured after 45-minute incubation at room temperature using a Tecan Spark multimode plate reader. FP signal (mP) was plotted against the log concentration of the test substances and IC50 values were calculated by nonlinear regression analysis using GraphPad Prism software. For STAT3 FP assay, A=≤100 nM; B=>100-1000 nM; C=>1-10 μM; and D=>10 μM.

[2] = target: T2, Recombinant STAT6 protein (STAT6(W123-T658)) (Homo sapiens, UniProt P42226); experiment: STAT6 Fluorescence Polarization (FP) Assay; type: binding; conditions: STAT6(W123-T658) 250 nM, probe 5-FAM-ApYKPFQDLI-NH2 2 nM, 45-minute incubation
T2 construct: STAT6(W123-T658)
T2 sequence (P42226 123-658): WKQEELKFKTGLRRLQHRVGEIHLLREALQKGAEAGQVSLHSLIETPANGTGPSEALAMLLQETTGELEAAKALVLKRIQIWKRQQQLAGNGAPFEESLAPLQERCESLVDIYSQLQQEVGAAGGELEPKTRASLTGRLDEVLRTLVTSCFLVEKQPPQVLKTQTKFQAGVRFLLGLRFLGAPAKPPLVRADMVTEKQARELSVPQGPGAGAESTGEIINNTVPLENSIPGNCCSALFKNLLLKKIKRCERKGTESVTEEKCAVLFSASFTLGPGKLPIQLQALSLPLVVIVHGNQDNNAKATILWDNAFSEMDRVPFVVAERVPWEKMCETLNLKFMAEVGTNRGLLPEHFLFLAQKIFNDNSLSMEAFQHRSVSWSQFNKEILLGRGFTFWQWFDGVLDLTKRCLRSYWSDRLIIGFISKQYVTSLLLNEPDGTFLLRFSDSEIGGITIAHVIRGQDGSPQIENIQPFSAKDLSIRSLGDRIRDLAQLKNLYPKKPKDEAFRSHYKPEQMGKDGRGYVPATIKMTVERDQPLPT
Experimental: STAT6 Fluorescence Polarization (FP) Assay
An FP assay was developed to determine IC50 values for test substances. Recombinant STAT6 protein (STAT6(W123-T658)) at 250 nM was combined with a fluorescently labeled, phosphotyrosine peptide probe (5-FAM-ApYKPFQDLI-NH2) at 2 nM in FP buffer (10 mM HEPES pH 7.4, 50 mM NaCl, 1 mM EDTA, 0.05% Tween 20, 2 mM DTT). 50 μL of STAT6-probe mixture was added to serial diluted compounds in black, 96-well plates (Greiner BioOne 655076) to a final concentration of 1% DMSO. Reaction components were mixed, and FP was measured after 45-minute incubation at room temperature using a Tecan Spark multimode plate reader. FP signal (mP) was plotted against the log concentration of the test substances and IC50 values were calculated by nonlinear regression analysis using GraphPad Prism software. For STAT6 FP assay, A=≤300 nM; B=>300-3000 nM; C=>3-30 μM; and D=>30 μM.

T1 sequence (P40763 127-722, species assumed): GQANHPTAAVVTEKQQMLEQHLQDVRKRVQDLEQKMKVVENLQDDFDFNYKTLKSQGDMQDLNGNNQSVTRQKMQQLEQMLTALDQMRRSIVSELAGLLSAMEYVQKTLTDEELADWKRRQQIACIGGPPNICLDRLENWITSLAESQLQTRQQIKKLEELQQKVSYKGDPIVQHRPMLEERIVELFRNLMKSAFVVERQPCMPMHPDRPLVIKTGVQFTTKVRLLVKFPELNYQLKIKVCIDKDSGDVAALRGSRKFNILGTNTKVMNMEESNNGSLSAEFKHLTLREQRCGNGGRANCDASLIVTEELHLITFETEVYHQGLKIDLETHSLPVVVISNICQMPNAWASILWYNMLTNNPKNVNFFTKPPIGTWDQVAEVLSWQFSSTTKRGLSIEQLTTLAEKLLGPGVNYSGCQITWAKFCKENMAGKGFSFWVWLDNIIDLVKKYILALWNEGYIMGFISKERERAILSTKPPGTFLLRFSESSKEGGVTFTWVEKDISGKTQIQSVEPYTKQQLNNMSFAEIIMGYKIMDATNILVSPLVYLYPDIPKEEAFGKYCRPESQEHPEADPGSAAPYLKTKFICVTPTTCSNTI

SMILES | IC50 [1] [µM] | IC50 [2] [µM]
CN(C)c1ccncc1C1CN(C(=O)[C@@H]2CC[C@@H]3C[C@H]4C[C@H]4C[C@H](NC(=O)c4cc5cc([C@H](F)P(=O)(O)O)ccc5s4)C(=O)N32)C1 (single isomer, unassigned) [Example 407] | < 0.1 | 3 to 30
CN(C)c1ccncc1C1CN(C(=O)[C@@H]2CC[C@@H]3C[C@H]4C[C@H]4C[C@H](NC(=O)c4cc5cc([C@@H](F)P(=O)(O)O)ccc5s4)C(=O)N32)C1 (single isomer, unassigned) [Example 408] | < 0.1 | 3 to 30
COC[C@@H]1CCN1c1ccncc1C1CN(C(=O)[C@@H]2CC[C@@H]3C[C@H]4C[C@H]4C[C@H](NC(=O)c4cc5cc([C@@H](F)P(=O)(O)O)ccc5s4)C(=O)N32)C1 (single isomer, unassigned) [Example 410] | 1 to 10 | 3 to 30
COC[C@@H]1CCN1c1ccncc1C1CN(C(=O)[C@@H]2CC[C@@H]3C[C@H]4C[C@H]4C[C@H](NC(=O)c4cc5cc([C@H](F)P(=O)(O)O)ccc5s4)C(=O)N32)C1 (single isomer, unassigned) [Example 411] | 0.1 to 1 | 0.3 to 3
N#C[C@@H]1[C@@H](c2cccnc2)CN(C(=O)[C@@H]2CC[C@@H]3C[C@H]4C[C@H]4C[C@H](NC(=O)c4cc5cc([C@H](F)P(=O)(O)O)ccc5s4)C(=O)N32)C12CC2 (single isomer, unassigned) [Example 429] | 1 to 10 | ≤ 0.3
CN(C)c1ccncc1[C@@H]1CN(C(=O)[C@@H]2CC[C@@H]3C[C@H]4C[C@H]4C[C@H](NC(=O)c4cc5cc([C@H](F)P(=O)(O)O)ccc5s4)C(=O)N32)C2(CC2)C1 (single isomer, unassigned) [Example 433] | < 0.1 | 0.3 to 3
CN(C)c1ccncc1[C@H]1CN(C(=O)[C@@H]2CC[C@@H]3C[C@H]4C[C@H]4C[C@H](NC(=O)c4cc5cc([C@H](F)P(=O)(O)O)ccc5s4)C(=O)N32)C2(CC2)C1 (single isomer, unassigned) [Example 435] | < 0.1 | ≤ 0.3
CC12CC1C[C@H](NC(=O)c1cc3cc(C(F)(F)P(=O)(O)O)ccc3s1)C(=O)N1[C@H](CC[C@H]1C(=O)N1CC(c3cccnc3)C1)C2 (stereo in doubt) [Example 231, (difluoro(2-(((3S,6S,7aR,8aS,9aR)-8a-methyl-5-oxo-3-(3-(pyridin-3-yl)azetidine-1-carbonyl)decahydro-1H-cyclopropa[d]pyrrolo[1,2-a]azocin-6-yl)carbamoyl)benzo[b]thiophen-5-yl)methyl)phosphonic acid] | < 0.1 | 3 to 30
COC1(c2nccn2C)CN(C(=O)[C@@H]2CC[C@@H]3CC4(C)CC4C[C@H](NC(=O)c4cc5cc(C(F)(F)P(=O)(O)O)ccc5s4)C(=O)N32)C1 (stereo in doubt) [Example 239, (difluoro(2-(((3S,6S,7aR,8aS,9aR)-3-(3-methoxy-3-(1-methyl-1H-imidazol-2-yl)azetidine-1-carbonyl)-8a-methyl-5-oxodecahydro-1H-cyclopropa[d]pyrrolo[1,2-a]azocin-6-yl)carbamoyl)benzo[b]thiophen-5-yl)methyl)phosphonic acid] | < 0.1 | 3 to 30

Continued, values first:

IC50 [1] [µM] | IC50 [2] [µM] | SMILES
< 0.1 | 3 to 30 | O=C(N[C@H]1C[C@@H]2C[C@@H]2C[C@H]2CC[C@@H](C(=O)N3CC(c4cnccc4N4CCOCC4)C3)N2C1=O)c1cc2cc([C@@H](F)P(=O)(O)O)ccc2s1 (single isomer, unassigned) [Example 405]
< 0.1 | 3 to 30 | O=C(N[C@H]1C[C@@H]2C[C@@H]2C[C@H]2CC[C@@H](C(=O)N3CC(c4cnccc4N4CCOCC4)C3)N2C1=O)c1cc2cc([C@H](F)P(=O)(O)O)ccc2s1 (single isomer, unassigned) [Example 406]
0.1 to 1 | 3 to 30 | CC(=O)N1CCC2C1CN2C(=O)[C@@H]1CC[C@@H]2C[C@H]3C[C@H]3C[C@H](NC(=O)c3cc4cc(C(F)P(=O)(O)O)ccc4s3)C(=O)N21 (stereo in doubt) [Example 289, ((2-(((3S,6S,7aS,8aR,9aR)-3-((1S,5S)-2-acetyl-2,6-diazabicyclo[3.2.0]heptane-6-carbonyl)-5-oxodecahydro-1H-cyclopropa[d]pyrrolo[1,2-a]azocin-6-yl)carbamoyl)benzo[b]thiophen-5-yl)fluoromethyl)phosphonic acid]
< 0.1 | 3 to 30 | C[C@H]1CN(C(=O)C2CN(C(=O)[C@@H]3CC[C@@H]4C[C@H]5C[C@H]5C[C@H](NC(=O)c5cc6cc(C(F)(F)P(=O)(O)O)ccc6s5)C(=O)N43)C2)CCO1 [Compound 12, (difluoro(2-(((3S,6S,7aS,8aR,9aR)-3-(3-((S)-2-methylmorpholine-4-carbonyl)azetidine-1-carbonyl)-5-oxodecahydro-1H-cyclopropa[d]pyrrolo[1,2-a]azocin-6-yl)carbamoyl)benzo[b]thiophen-5-yl)methyl)phosphonic acid]
< 0.1 | 3 to 30 | C[C@@H]1COCCN1C(=O)C1CN(C(=O)[C@@H]2CC[C@@H]3C[C@H]4C[C@H]4C[C@H](NC(=O)c4cc5cc(C(F)(F)P(=O)(O)O)ccc5s4)C(=O)N32)C1 [Compound 13, (difluoro(2-(((3S,6S,7aS,8aR,9aR)-3-(3-((R)-3-methylmorpholine-4-carbonyl)azetidine-1-carbonyl)5-oxodecahydro-1H-cyclopropa[d]pyrrolo[1,2-a]azocin-6-yl)carbamoyl)benzo[b]thiophen-5-yl)methyl)phosphonic acid]
< 0.1 | 3 to 30 | C[C@H]1COCCN1C(=O)C1CN(C(=O)[C@@H]2CC[C@@H]3C[C@H]4C[C@H]4C[C@H](NC(=O)c4cc5cc(C(F)(F)P(=O)(O)O)ccc5s4)C(=O)N32)C1 [Compound 14, (difluoro(2-(((3S,6S,7aS,8aR,9aR)-3-(3-((S)-3-methylmorpholine-4-carbonyl)azetidine-1-carbonyl)-5-oxodecahydro-1H-cyclopropa[d]pyrrolo[1,2-a]azocin-6-yl)carbamoyl)benzo[b]thiophen-5-yl)methyl)phosphonic acid]
< 0.1 | 3 to 30 | O=C(N[C@H]1C[C@@H]2C[C@@H]2C[C@H]2CC[C@@H](C(=O)N3CC(C(=O)N4CCOCC4)C3)N2C1=O)c1cc2cc(C(F)(F)P(=O)(O)O)ccc2s1 [Compound 15, (difluoro(2-(((3S,6S,7aS,8aR,9aR)-3-(3-(morpholine-4-carbonyl)azetidine-1-carbonyl)-5-oxodecahydro-1H-cyclopropa[d]pyrrolo[1,2-a]azocin-6-yl)carbamoyl)benzo[b]thiophen-5-yl)methyl)phosphonic acid]
0.1 to 1 | 3 to 30 | O=C(N[C@H]1C[C@@H]2C[C@@H]2C[C@H]2CC[C@@H](C(=O)N3CC[C@@H](N4CCOCC4)C3)N2C1=O)c1cc2cc(C(F)(F)P(=O)(O)O)ccc2s1 [Compound 16, (difluoro(2-(((3S,6S,7aS,8aR,9aR)-3-((R)-3-morpholinopyrrolidine-1-carbonyl)-5-oxodecahydro-1H-cyclopropa[d]pyrrolo[1,2-a]azocin-6-yl)carbamoyl)benzo[b]thiophen-5-yl)methyl)phosphonic acid]
0.1 to 1 | 3 to 30 | O=C(N[C@H]1C[C@@H]2C[C@@H]2C[C@H]2CC[C@@H](C(=O)N3CC[C@H](N4CCOCC4)C3)N2C1=O)c1cc2cc(C(F)(F)P(=O)(O)O)ccc2s1 [Compound 17, (difluoro(2-(((3S,6S,7aS,8aR,9aR)-3-((S)-3-morpholinopyrrolidine-1-carbonyl)-5-oxodecahydro-1H-cyclopropa[d]pyrrolo[1,2-a]azocin-6-yl)carbamoyl)benzo[b]thiophen-5-yl)methyl)phosphonic acid]

From US20250215030A1, “STAT MODULATORS AND USES THEREOF” (Recludix Pharma, Inc., priority 2022, published 2025)
